Legend:
[1] = target: Vascular endothelial growth factor receptor 2 (Homo sapiens, UniProt P35968); assay type: functional
Androgen receptor = target: T1, Androgen receptor (Homo sapiens, UniProt P10275)
T1 sequence (P10275 whole entry): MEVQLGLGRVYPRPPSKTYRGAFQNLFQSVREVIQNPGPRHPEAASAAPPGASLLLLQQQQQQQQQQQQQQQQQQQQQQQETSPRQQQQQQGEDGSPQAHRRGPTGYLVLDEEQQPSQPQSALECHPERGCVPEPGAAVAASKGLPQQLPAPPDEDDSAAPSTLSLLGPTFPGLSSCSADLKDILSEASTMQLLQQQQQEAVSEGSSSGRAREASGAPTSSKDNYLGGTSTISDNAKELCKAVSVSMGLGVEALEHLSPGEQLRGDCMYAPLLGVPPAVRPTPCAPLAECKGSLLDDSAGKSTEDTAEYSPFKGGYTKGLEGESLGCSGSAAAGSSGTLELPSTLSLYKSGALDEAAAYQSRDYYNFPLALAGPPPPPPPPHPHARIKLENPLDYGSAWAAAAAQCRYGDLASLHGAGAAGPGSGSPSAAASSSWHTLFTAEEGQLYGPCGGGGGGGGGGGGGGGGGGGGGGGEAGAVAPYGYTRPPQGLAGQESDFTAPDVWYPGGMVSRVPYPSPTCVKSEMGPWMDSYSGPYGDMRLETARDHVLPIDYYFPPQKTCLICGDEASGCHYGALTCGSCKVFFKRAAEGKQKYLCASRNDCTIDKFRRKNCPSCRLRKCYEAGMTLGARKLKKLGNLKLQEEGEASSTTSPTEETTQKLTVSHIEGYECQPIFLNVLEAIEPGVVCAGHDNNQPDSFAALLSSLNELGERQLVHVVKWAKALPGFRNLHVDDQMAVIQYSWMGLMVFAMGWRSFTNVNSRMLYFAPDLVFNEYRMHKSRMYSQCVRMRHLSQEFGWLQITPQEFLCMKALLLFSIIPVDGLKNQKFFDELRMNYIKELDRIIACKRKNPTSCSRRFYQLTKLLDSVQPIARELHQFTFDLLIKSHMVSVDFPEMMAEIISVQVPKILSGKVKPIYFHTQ

Adenosine receptor A3 = target: T2, Adenosine receptor A3 (Homo sapiens, UniProt P0DMS8)
T2 sequence (P0DMS8 whole entry): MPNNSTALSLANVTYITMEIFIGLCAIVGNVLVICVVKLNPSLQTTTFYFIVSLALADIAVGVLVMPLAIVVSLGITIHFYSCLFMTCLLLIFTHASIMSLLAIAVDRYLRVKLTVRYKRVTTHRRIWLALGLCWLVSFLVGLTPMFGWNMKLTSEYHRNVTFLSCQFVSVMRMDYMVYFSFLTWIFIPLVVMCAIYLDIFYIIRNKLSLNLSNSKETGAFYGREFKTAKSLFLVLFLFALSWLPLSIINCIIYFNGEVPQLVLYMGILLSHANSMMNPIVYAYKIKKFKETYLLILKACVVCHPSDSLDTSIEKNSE
Note: assay procedure not described here.

Sequence of Vascular endothelial growth factor receptor 2 (P35968 whole entry): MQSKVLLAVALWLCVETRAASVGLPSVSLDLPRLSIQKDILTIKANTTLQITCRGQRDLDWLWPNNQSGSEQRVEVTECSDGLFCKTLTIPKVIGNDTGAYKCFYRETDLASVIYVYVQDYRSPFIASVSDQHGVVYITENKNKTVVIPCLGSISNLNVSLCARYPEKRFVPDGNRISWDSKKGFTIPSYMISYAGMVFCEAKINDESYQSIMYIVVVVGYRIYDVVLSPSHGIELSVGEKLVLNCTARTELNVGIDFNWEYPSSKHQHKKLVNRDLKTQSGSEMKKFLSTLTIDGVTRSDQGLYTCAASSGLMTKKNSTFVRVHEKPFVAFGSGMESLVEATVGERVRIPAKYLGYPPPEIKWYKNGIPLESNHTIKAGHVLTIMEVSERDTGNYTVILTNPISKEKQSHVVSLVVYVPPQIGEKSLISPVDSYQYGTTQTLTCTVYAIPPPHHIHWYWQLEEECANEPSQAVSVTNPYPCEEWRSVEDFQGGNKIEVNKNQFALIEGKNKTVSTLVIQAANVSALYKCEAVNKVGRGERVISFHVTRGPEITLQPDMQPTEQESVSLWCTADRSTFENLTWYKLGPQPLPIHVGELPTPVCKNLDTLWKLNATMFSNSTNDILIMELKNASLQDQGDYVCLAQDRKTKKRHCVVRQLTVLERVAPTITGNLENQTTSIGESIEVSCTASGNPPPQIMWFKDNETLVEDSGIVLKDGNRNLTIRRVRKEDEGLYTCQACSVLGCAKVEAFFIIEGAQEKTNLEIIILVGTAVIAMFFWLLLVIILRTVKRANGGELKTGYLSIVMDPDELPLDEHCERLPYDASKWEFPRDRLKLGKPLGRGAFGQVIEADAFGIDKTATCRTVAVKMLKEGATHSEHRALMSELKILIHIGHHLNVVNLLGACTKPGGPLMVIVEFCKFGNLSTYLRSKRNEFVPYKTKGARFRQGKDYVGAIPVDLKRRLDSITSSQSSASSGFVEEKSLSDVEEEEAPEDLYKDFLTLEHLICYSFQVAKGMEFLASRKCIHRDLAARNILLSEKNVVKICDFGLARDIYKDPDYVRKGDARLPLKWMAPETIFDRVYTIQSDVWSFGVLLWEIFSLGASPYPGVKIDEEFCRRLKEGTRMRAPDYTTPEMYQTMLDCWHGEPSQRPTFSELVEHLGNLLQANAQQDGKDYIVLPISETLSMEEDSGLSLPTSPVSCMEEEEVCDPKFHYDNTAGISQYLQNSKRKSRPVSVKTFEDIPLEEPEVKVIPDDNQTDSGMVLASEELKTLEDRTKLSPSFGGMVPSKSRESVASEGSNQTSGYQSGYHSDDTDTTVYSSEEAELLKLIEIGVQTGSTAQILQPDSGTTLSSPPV

Q: CC[C@@H]1C[C@]1(NC(=O)[C@@H]1C[C@@H]2CN1C(=O)[C@H](C(C)(C)C)NC(=O)OCC(C)(C)CCCCc1cccc3c1CN(C3)C(=O)O2)C(=O)NS(=O)(=O)C1CC1 was tested. Which AC50 [1] did it give?
A: Its AC50 is 16.3 µM.

Q: And the AC50 (Androgen receptor)?
A: Its AC50 is > 30 µM.

Q: And the AC50 (Adenosine receptor A3)?
A: Its AC50 is 12.6 µM.

Q: With C=C(C)CNc1ccc(C(C)C(=O)O)cc1 (stereo not drawn) [ALMINOPROFEN] as the molecule, how does the AC50 [1] read?
A: Its AC50 is > 30 µM.

Q: And the AC50 (Androgen receptor)?
A: Its AC50 is > 30 µM.

Q: What about the AC50 (Adenosine receptor A3) of the same molecule?
A: Its AC50 is > 30 µM.

Q: What does the source list for C[C@H]1CN(C[C@H](Cc2ccccc2)C(=O)NCC(=O)O)CC[C@@]1(C)c1cccc(O)c1 [ALVIMOPAN]?
A: AC50 [1]: > 30 µM; AC50 (Androgen receptor): > 30 µM; AC50 (Adenosine receptor A3): > 30 µM

Q: With C[C@H]1O[C@@H](O[C@H]2CC[C@@]3(C)[C@H](CC[C@@H]4[C@@H]3C[C@@H](O)[C@]3(C)[C@@H](C5=CC(=O)OC5)CC[C@]43O)C2)C[C@H](O)[C@@H]1O[C@H]1C[C@H](O)[C@H](O[C@H]2C[C@H](O)[C@H](O[C@@H]3O[C@H](CO)[C@@H](O)[C@H](O)[C@H]3O)[C@@H](C)O2)[C@@H](C)O1 [DESLANOSIDE] as the molecule, how does the AC50 [1] read?
A: The AC50 was > 30 µM.

Q: What about the AC50 (Androgen receptor) of the same molecule?
A: Its AC50 is > 30 µM.

Q: And the AC50 (Adenosine receptor A3)?
A: Its AC50 is > 30 µM.

Q: What does the source list for N=C(N)N/N=C/c1c(Cl)cccc1Cl [GUANABENZ]?
A: AC50 [1]: > 30 µM; AC50 (Androgen receptor): > 30 µM; AC50 (Adenosine receptor A3): > 30 µM

Q: Which AC50 [1] does the source give for CCCCC(CC)CN1CN(CC(CC)CCCC)CC(C)(N)C1 (stereo not drawn) [HEXETIDINE] here?
A: Its AC50 is > 30 µM.

Q: And the AC50 (Androgen receptor)?
A: The AC50 was > 30 µM.

Q: And the AC50 (Adenosine receptor A3)?
A: The AC50 was 10.8 µM.

Q: How did the AC50 [1] turn out when CC(C)[C@@H]1CC[C@@H](C)C[C@H]1O [LEVOMENTHOL] was run?
A: The AC50 was > 30 µM.

Q: What about the AC50 (Androgen receptor) of the same molecule?
A: The AC50 was > 30 µM.

Q: And the AC50 (Adenosine receptor A3)?
A: Its AC50 is > 30 µM.

Q: Which results are given for COC(=O)[C@@H](N)Cc1ccc(O)c(O)c1 [MELEVODOPA]?
A: AC50 [1]: > 30 µM; AC50 (Androgen receptor): > 30 µM; AC50 (Adenosine receptor A3): > 30 µM

Q: How did the AC50 [1] turn out when CN(C)c1ccc(O)c2c1C[C@H]1C[C@H]3[C@H](N(C)C)C(O)=C(C(N)=O)C(=O)[C@@]3(O)C(O)=C1C2=O [MINOCYCLINE] was run?
A: The AC50 was > 30 µM.

Q: What about the AC50 (Androgen receptor) of the same molecule?
A: Its AC50 is > 30 µM.

Q: What about the AC50 (Adenosine receptor A3) of the same molecule?
A: The AC50 was > 30 µM.

Q: Which AC50 [1] does the source give for CCNC(=O)/C=C(C)/C=C/C=C(C)/C=C/c1c(C)cc(OC)c(C)c1C [MOTRETINIDE] here?
A: The AC50 was > 30 µM.

Q: And the AC50 (Androgen receptor)?
A: Its AC50 is > 30 µM.

Q: And the AC50 (Adenosine receptor A3)?
A: Its AC50 is 2.24 µM.

Q: Which AC50 [1] does the source give for C=CC(=O)Nc1cccc(Oc2nc(Nc3ccc(N4CCN(C)CC4)cc3)nc3ccsc23)c1 [OLMUTINIB] here?
A: The AC50 was 2.06 µM.

Q: What about the AC50 (Androgen receptor) of the same molecule?
A: The AC50 was > 30 µM.

Q: And the AC50 (Adenosine receptor A3)?
A: The AC50 was 0.003 µM.

Q: How did the AC50 [1] turn out when CCCCC1C(=O)N(c2ccccc2)N(c2ccc(O)cc2)C1=O (stereo not drawn) [OXYPHENBUTAZONE ANHYDROUS] was run?
A: The AC50 was > 30 µM.

Q: What about the AC50 (Androgen receptor) of the same molecule?
A: Its AC50 is > 30 µM.

Q: And the AC50 (Adenosine receptor A3)?
A: Its AC50 is > 30 µM.

Q: Which results are given for Nc1cccc2c1C(=O)N(C1CCC(=O)NC1=O)C2=O (stereo not drawn) [POMALIDOMIDE]?
A: AC50 [1]: > 30 µM; AC50 (Androgen receptor): > 30 µM; AC50 (Adenosine receptor A3): > 30 µM

Q: How did the AC50 [1] turn out when Cc1ccsc1C(=CCCN1CCC[C@@H](C(=O)O)C1)c1sccc1C [TIAGABINE] was run?
A: Its AC50 is > 30 µM.

Q: And the AC50 (Androgen receptor)?
A: The AC50 was > 30 µM.

Q: And the AC50 (Adenosine receptor A3)?
A: The AC50 was > 30 µM.

Q: Cc1ccc(C(=O)c2ccc(CC(=O)O)n2C)cc1 [TOLMETIN] was tested. Which AC50 [1] did it give?
A: The AC50 was > 30 µM.

Q: And the AC50 (Androgen receptor)?
A: The AC50 was > 30 µM.

Q: And the AC50 (Adenosine receptor A3)?
A: Its AC50 is > 30 µM.

Q: With CC[C@]12CCCN3CCc4c(n(c5ccccc45)[C@@](O)(C(=O)OC)C1)[C@@H]32 [VINCAMINE] as the molecule, how does the AC50 [1] read?
A: The AC50 was > 30 µM.

Q: And the AC50 (Androgen receptor)?
A: The AC50 was > 30 µM.

Q: What about the AC50 (Adenosine receptor A3) of the same molecule?
A: Its AC50 is > 30 µM.

Reference: ChEMBL document CHEMBL5291721, “A preclinical secondary pharmacology resource illuminates target-adverse drug reaction associations of marketed drugs” (Nat Commun, 2023)
